Assay results taken from patent US6906078B2, “Method of using (H+/K+) ATPase inhibitors as antiviral agents” (Pharmacia Corporation, priority 1994, dated 2005).

What was measured:
(H+/K+)-ATPase = target: T1, (H+/K+)-ATPase (Canis lupus familiaris, UniProt P50996); assay: Inhibition of (H+/K+)-ATPase from canine gastric mucosa (inorganic phosphate release); assay type: biochemical; details: canine gastric mucosa microsomes, pH 6.0, 30 min preincubation at 37° C.; read-out: (H+/K+)-ATPase IC50
T1 construct: The microsomes retained at the 15%-30% sucrose interface, after centrifugation at 250,000×g for sixty minutes, were used as the source of (H^+/K^+)-ATPase; from tissue; host or cells: gastric glandular mucosa of mongrel dogs (microsomal fraction, lyophilized)
T1 sequence (P50996 whole entry): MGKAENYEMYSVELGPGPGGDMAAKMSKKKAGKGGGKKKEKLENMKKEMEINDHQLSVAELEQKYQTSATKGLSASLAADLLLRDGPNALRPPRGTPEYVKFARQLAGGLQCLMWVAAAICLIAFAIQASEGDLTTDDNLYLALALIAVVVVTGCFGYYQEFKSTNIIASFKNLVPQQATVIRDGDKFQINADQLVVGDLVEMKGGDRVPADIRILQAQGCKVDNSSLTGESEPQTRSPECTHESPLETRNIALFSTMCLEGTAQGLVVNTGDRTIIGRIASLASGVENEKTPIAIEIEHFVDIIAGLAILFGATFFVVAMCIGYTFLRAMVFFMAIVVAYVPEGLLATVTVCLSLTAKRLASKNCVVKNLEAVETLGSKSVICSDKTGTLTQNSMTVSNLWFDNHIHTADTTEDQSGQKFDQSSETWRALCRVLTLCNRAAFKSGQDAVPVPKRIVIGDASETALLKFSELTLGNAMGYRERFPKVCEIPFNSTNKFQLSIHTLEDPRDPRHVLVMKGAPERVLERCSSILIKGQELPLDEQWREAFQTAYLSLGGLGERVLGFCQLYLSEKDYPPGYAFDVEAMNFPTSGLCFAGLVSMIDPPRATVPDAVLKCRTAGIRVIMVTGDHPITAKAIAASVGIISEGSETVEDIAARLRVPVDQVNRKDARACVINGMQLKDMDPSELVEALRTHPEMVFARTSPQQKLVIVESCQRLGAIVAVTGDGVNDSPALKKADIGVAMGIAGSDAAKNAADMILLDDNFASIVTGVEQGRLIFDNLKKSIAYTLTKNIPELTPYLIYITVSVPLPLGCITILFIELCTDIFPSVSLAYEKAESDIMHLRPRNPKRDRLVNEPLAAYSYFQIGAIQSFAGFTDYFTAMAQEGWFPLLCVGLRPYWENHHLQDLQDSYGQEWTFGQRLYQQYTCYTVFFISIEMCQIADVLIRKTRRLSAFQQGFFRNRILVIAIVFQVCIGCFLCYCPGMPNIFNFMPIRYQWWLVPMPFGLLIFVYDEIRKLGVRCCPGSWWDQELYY
T1 sequence (P33704 whole entry partner): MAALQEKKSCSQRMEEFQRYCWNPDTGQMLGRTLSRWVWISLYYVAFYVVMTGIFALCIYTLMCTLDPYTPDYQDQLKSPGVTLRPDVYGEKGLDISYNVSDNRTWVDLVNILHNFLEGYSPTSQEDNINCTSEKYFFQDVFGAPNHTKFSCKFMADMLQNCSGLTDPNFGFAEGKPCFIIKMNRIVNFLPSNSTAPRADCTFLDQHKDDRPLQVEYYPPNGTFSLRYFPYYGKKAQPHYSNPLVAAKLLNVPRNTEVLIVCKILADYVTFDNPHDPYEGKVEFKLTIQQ
Method in brief: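 Lyophilised gastric microsomes (sucrose-gradient 15%/30% interface fraction from dog mucosa, ~25 mcg protein) preincubated with compound 30 min at 37° C in 20 mM MES-Tris pH 6.0, 5 mM MgCl2, 25 mM sucrose, then 30 min more after 4 mM Tris-ATP. Released phosphate read by molybdate/ascorbate at 870 nm; activity = K+-stimulated (20 mM KCl) minus basal.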

[1] = target: HCMV protease (assemblin) (Human cytomegalovirus, UniProt P16753); assay: Enzymatic assay for HCMV protease (assemblin) inhibitors, fluorogenic substrate DE2; assay type: biochemical; details: at 100 μm; 30 min preincubation at 22° C.; read-out: Assemblin Inhibition % Inhibition at 100 μm
Chain of HCMV protease (assemblin) (P16753 1-256): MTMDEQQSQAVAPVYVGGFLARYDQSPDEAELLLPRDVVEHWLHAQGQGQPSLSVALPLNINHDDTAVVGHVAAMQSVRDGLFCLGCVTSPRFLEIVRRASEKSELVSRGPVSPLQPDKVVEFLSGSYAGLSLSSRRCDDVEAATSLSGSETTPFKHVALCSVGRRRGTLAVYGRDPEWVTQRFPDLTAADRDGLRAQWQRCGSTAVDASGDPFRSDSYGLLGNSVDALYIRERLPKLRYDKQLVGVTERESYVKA
Description: The enzymatic assay for assemblin inhibitors compared the rate of product appearance between a control reaction containing no inhibitor and one that contained a known concentration of a potential inhibitor. There were two phases to the enzyme reaction. The first was a period of incubation of enzyme in the presence of inhibitor, but in the absence of the substrate. This incubation allowed for the inhibitor to bind and potentially block the enzyme from hydrolyzing the substrate. The second phase was started by adding the substrate and measuring the rate of product production.
The construction also encoded six additional histidine residues at the amino terminus of the protease. These additional histidine residues provided an affinity ligand by which it was purified using nickel-nitriloacetic acid-agarose (Qiagen).
The purified protease was stored as a 1-3 mg/ml stock solution in 50 mM sodium phosphate buffer, pH 7.4; 300 mM sodium chloride; 100 mM imidazole; 50% (v/v) glycerol. This stock was diluted with assay buffer to 4.8 μg/ml. A 100 μL aliquot of this solution was used in the enzyme reaction.
A specific substrate was synthesized based on the cleavage specificity of HCMV protease at the “maturation site” of the assembly protein (F. Liu and B. Roizman, J. Viral. 65, 5149 (1991), and A. R. Welch, et al, J. Viral., 65 4091 (1991)). The assembly protein maturation site has the sequence . . . AGVVNA*SCRLATA . . . (SEQ ID NO. 1); the substrate used was dabcycl-Abu-[…]-edans (SEQ ID NO. 2) (DE2). […] However, when the two chromophores are separated because of hydrolysis of the peptide moiety by HCMV protease the edans fluorescence was no longer quenched and an increase in fluorescence was realized. DE2 was stored as a stock solution at 160 μg/ml in dimethyl sulfoxide. This was diluted 10-fold with assay buffer to give a concentration of 16 μg/ml just before use. An aliquot of 50 μL was used in the reaction.
An assay Buffer (10 mM sodium phosphate buffer, pH 7.4; 150 mM sodium acetate; 0.1% CHAPS; and 20% (v/v) glycerol) was used to dilute stock solutions of enzyme and substrate.
Inhibitors were dissolved in dimethyl sulfoxide at 16-times the final assay concentration. A 10 μL aliquot of this inhibitor solution was used in the reaction.
A 100 μL aliquot of enzyme solution (4.8 μg/ml) was mixed with 10 μL of inhibitor solution in a 96-well plate cell and incubated at 22° C. for 30 minutes. Control reactions contained 10 μL of dimethylsulfoxide instead of inhibitor solution. After the preincubation was completed, 50 μL of substrate solution was added and the fluorescence recorded every 5 minutes for a period of 30 minutes. All reactions were run in triplicate with the exception of the uninhibited control reaction which was replicated 6-fold. The change in fluorescence was recorded over time and an average rate for each set of 3 reactions was calculated. Fluorescence assays were subject to spurious various due to factors such as dust in the 96-well plate; such results were omitted from the calculation of relative rates.

| Compound | IC50 ((H+/K+)-ATPase) [nM] | inhibition at 100 µM [1] [%] |
| --- | --- | --- |
| COc1ccc(N)c(C[S+]([O-])c2nc3ccccc3[nH]2)c1 (stereo not drawn) [Example 20, 2-[(1H-Benzimidazol-2-ylsulfinyl)methyl]-4-methoxybenzenamine] | 1600 | 60 |
| Cc1ccc(C[S+]([O-])c2nc3ccccc3[nH]2)c(N)c1C (stereo not drawn) [Example 53, 2-[(1H-Benzimidazol-2-ylsulfinyl)methyl]-5,6-dimethylbenzenamine ¼ hydrate] | 600 | 85 |
| COc1ccc2[nH]c([S+]([O-])Cc3c(N)cc(C)c(OC)c3C)nc2c1 (stereo not drawn) [Example 78, 2-[[(5-Methoxy-1H-benzimidazol-2-yl)sulfinyl]methyl]-4-methoxy-3,5-dimethylbenzenamine] | 2100 | 82 |
| COc1ccc2[nH]c([S+]([O-])Cc3ncc(C)c(OC)c3C)nc2c1 (stereo not drawn) [omeprazole, reference compound] | 1900 | 0 |

Now from value to compound:

| IC50 ((H+/K+)-ATPase) [nM] | inhibition at 100 µM [1] [%] | Compound |
| --- | --- | --- |
| 7900 | 67 | Cc1ccc2[nH]c([S+]([O-])Cc3ccccc3N)nc2c1 (stereo not drawn) [Example 41, 2-[[(5-Methyl-1H-benzimidazol-2-yl)sulfinyl]-methyl]benzenamine] |
| 12000 | 74 | Nc1ccccc1C[S+]([O-])c1nc2cc(Cl)ccc2[nH]1 (stereo not drawn) [Example 43, 2-[[(5-Chloro-1H-benzimidazol-2-yl)sulfinyl]-methyl]benzenamine] |
